Results from US10538516B2, “Oxadiazole derivative and pharmaceutical containing same” (National Center for Geriatrics and Gerontology, priority 2015, dated 2020).

Tests used:
[1] = target: T1, GAβ-dependent amyloid fibril formation (Human Aβ1-40 + GM1-containing liposome) (Homo sapiens, UniProt P05067); test: Thioflavin T (ThT) assay of GAβ-dependent amyloid fibril formation (Aβ1-40 with GM1-containing liposome); assay type: biochemical; conditions: inhibition rate against amyloid fibril formation, final concentration of the compound 25 μM; read-out: Inhibitory activity ABC evaluation
T1 construct: Human Aβ1-40 (cat. #4307-v, prepared by Peptide Institute); purchased Peptide Institute 4307-v
Method in brief: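 Human Aβ1-40 (75 μM stock) pre-incubated 10 min at room temperature with compound (75 or 15 μM solution), then GM1-containing cholesterol/sphingomyelin liposome added and incubated 37° C, 18 hours. Fibrils quantified by ThT fluorescence (ex 430/em 490 nm, pH 8.5 glycine buffer); inhibition as ratio to compound-free control.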

T1 sequence (P05067 672-711 limits assumed): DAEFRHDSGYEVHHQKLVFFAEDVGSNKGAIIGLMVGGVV

melting point [°C]	inhibition at 25 µM [1] [%]	SMILES
167	< 40	COc1ccc(-c2noc(CCC(=O)Nc3cc(Cl)ccn3)n2)cc1 [Compound 4, N-(4-chloropyridin-2-yl)-3-{3-(4-methoxyphenyl)-1,2,4-oxadiazol-5-yl}propanamide]
80	40 to 80	COc1ccc(-c2noc(CCC(=O)N(CCCO)c3cccc(Cl)c3)n2)cc1 [Compound 6, N-(3-chlorophenyl)-N-(3-hydroxypropyl)-3-{3-(4-methoxyphenyl)-1,2,4-oxadiazol-5-yl}propanamide]
–	> 80	O=C(N[C@@H](CO)c1nc(-c2cc3ccccc3[nH]2)no1)c1ccc(F)cc1 [Compound 266, 4-fluoro-N-[(1S)-2-hydroxy-1-[3-(1H-indol-2-yl)-1,2,4-oxadiazol-5-yl]ethyl] benzamide]
–	> 80	O=C(N[C@@H](CO)c1nc(-c2cc3cc(F)ccc3[nH]2)no1)c1ccc(F)cc1 [Compound 267, 4-fluoro-N-[(1S)-1-[3-(5-fluoro-1H-indol-2-yl)-1,2,4-oxadiazol-5-yl]-2-hydroxyethyl] benzamide]

Further lines, the molecule ahead of its results:

SMILES	melting point [°C]	inhibition at 25 µM [1] [%]
CCCN(C(=O)Cc1nc(-c2ccc(OC)cc2)no1)c1cccc(Cl)c1 [Compound 1, N-(3-chlorophenyl)-2-{3-(4-methoxyphenyl)-1,2,4-oxadiazol-5-yl}-N-propylacetamide]	108	< 40
CCCN(C(=O)CCc1nc(-c2ccc(OC)cc2)no1)c1cccc(Cl)c1 [Compound 2, N-(3-chlorophenyl)-3-{3-(4-methoxyphenyl)-1,2,4-oxadiazol-5-yl}-N-propylpropanamide]	85	40 to 80
COc1ccc(-c2noc(CCC(=O)N(CCO)c3cccc(Cl)c3)n2)cc1 [Compound 3, N-(3-chlorophenyl)-N-(2-hydroxyethyl)-3-{3-(4-methoxyphenyl)-1,2,4-oxadiazol-5-yl}propanamide]	95	< 40
